The subject of test [1] is CLL cells. As to the kind of experiment: Cytotoxicity in presence of cross-linking (annexin V/PI). The following applies: for cell death (antibody-mediated apoptosis in the presence of cross-linking): rituximab 10 μg/mL + 50 μg/mL anti-Fc. Format: cell-based, human. The protocol: Cells (10^6 cells/mL) were treated with commercially purchased alemtuzumab (anti-CD52; Ilex Pharmaceuticals, San Antonio, Tex.), rituximab (anti-CD20; Genentech, San Francisco, Calif.), or trastuzumab (anti-HER2; Genentech) at a concentration of 10 μg/mL. Goat antihuman IgG cross-linker (Fc specific; Jackson ImmunoResearch Laboratories, West Grove, Pa.) was added to the cell suspension 5 minutes after adding the primary antibodies at a concentration of 50 μg/mL.
In addition, samples with no treatment or crosslinker alone were collected at matched time points. Apoptosis of cells at 24 and 48 hours after treatment was measured by annexin V-fluorescein isothiocyanate/propidium iodide (PI) flow cytometry analysis according to the supplier's instructions (BD Biosciences).
Cytotoxicity results were expressed as percentage of total positive cells over untreated control [% positive cells=(% annexin^+ and/or PI^+ cells of treatment group)−(% annexin^+ and/or PI^+ cells of untreated control)].

Test [2] concerns CLL cells. As to the kind of experiment: ADCC, 4-hour 51Cr-release assay. The format is cell-based, human. The following applies: using alemtuzumab, data not shown. As to the method: For ADCC experiments, CD56^+ and CD19^+ cells were negatively purified from whole blood obtained from either healthy volunteers or CLL subjects by magnetic-activated cell sorting according to the manufacturer's recommendations (MiniMACS; Miltenyi Biotec, Auburn, Calif.). The purity of enriched populations was always greater than 95% of the total yield as detected by CD19 and CD3 staining.
ADCC activity was determined by standard 4-hour ^51Cr-release assay. ^51Cr-labeled target cells (10^5 CLL cells/mL) were incubated with media alone or in the presence of various antibodies (10 μg/mL) at 37° C. for 30 minutes. Unbound antibody was washed off and the cells plated at 10^4 cells/well. Effector cells (natural killer [NK] cells from healthy donors or CLL subjects) were then added to the plates at indicated effector-to-target (E:T) ratios. After a 4-hour incubation, supernatants were removed and measured using a gamma counter. The percentage of specific cell lysis was determined by the equation: % lysis=100×(ER−SR)/(MR−SR), where ER, SR, and MR represent experimental, spontaneous, and maximum release, respectively. Data were normalized to the untreated control.

Turning to “alemtuzumab: anti-CD52 antibody; Ilex Pharmaceuticals”, in the test on CLL cells [1] (lenalidomide 48 hours, cross-linking, same conditions), the “change in alemtuzumab-mediated apoptosis with lenalidomide treatment” value was “No significant change”. The “change in ADCC, lenalidomide versus untreated cells” value with CLL cells [2] is reported as “no significant change”.
Take “rituximab: anti-CD20 antibody; Genentech”: the “cell death (antibody-mediated apoptosis in the presence of cross-linking)” value was 11% ±8% in the test with CLL cells [1] (lenalidomide-treated CLL cells (48 hours), N=10, P<0.017) and 25% ±11% in the test on CLL cells [1] (vehicle-treated CLL cells (48 hours), N=10).

For the origin of these results see patent US20110280913A1, “Methods and Compositions for Delivering Therapeutic Agents in the Treatment of B-Cell Related Disorders” (THE OHIO STATE UNIVERSITY, priority 2008, published 2011).
